Experimental data as given in US10842779B2, “Heterocyclic compounds and their use in preventing or treating bacterial infections” (priority 2015, dated 2020).
Where two headings read alike, the source gives them in different places.

What was measured:
S. marcescens [1] = experiment: Synergy with ceftazidime: MIC of ceftazidime at fixed concentration of compound; type: cell-based; settings: Serratia marcescens; SMA UFR30; beta-lactamases OXA-405; read-out: MIC of CAZ + compound (4 μg/mL)
Experimental: (§1) Method 2: MIC of Compounds and Synergy with Ceftazidime Against Bacterial Isolates (Table 2 and 3)
(§2) Compounds of the present invention were assessed against genotyped bacterial strains alone or in combination with the β-lactam ceftazidime. In the assays, MICs of said compounds, or of ceftazidime at fixed concentrations of said compounds were determined by the broth microdilution method according to the Clinical Laboratory Standards Institute (CLSI—M7-A7). Briefly, compounds alone according to the invention were prepared in DMSO and spotted (2 μL each) on sterile polystyrene plates (Corning, 3788). Compounds and ceftazidime dilutions were prepared in DMSO and spotted (1 μL each) on sterile polystyrene plates (Corning, 3788). Log phase bacterial suspensions were adjusted to a final density of 5×10^5 cfu/mL in cation-adjusted Mueller-Hinton broth (Beckton-Dickinson) and added to each well (98 μL). Microplates were incubated for 16-20 h at 35° C. in ambient air. The MIC of the compounds was defined as the lowest concentration of said compounds that prevented bacterial growth as read by visual inspection. The MIC of ceftazidime at each compound concentration was defined as the lowest concentration of ceftazidime that prevented bacterial growth as read by visual inspection.

C. murliniae [2] = experiment: as above; type: cell-based; settings: CMU 210102; beta-lactamases VIM-4; read-out: MIC of CAZ + compound (4 μg/mL)
Experimental: as §1, §2

OXA-48 = target: T1, OXA-48 (Klebsiella pneumoniae, UniProt Q6XEC0); experiment: β-Lactamase inhibitory activity, nitrocefin hydrolysis; type: biochemical; settings: class (D); 30 min pre-incubation
T1 construct: made in house; host or cells: E. coli
T1 sequence (Q6XEC0 23-265, looked up, species assumed): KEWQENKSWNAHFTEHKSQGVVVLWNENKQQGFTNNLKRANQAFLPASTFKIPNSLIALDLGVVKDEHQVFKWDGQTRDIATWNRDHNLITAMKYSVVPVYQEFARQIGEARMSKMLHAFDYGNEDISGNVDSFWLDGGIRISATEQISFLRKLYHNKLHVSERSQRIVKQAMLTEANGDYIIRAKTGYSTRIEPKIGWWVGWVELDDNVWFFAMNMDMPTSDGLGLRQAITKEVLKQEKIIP
Experimental: Enzyme activity was monitored by spectrophotometric measurement of nitrocefin (NCF-TOKU-E, N005) hydrolysis at 485 nm, at room temperature and in assay buffer A: 100 mM Phosphate pH7, 2% glycerol and 0.1 mg/mL Bovine serum albumin (Sigma, B4287). Enzymes were cloned in E. coli expression vector, expressed and purified in house using classical procedures. To a transparent polystyrene plate (Corning, 3628) were added in each well 5 μL DMSO or inhibitor dilutions in DMSO and 80 μL enzyme in buffer A. Plates were immediately read at 485 nm in a microplate spectrophotometer (BioTek, PowerWave HT) to enable background subtraction. After 30 min of pre-incubation at room temperature, 15 μL of NCF (200 μM final) were finally added in each well. Final enzyme concentrations were 0.1 nM (TEM-1), 0.075 nM (SHV-1), 0.4 nM (CTX-M-15), 1 nM (KPC-2), 0.2 nM (P99 AmpC), 0.2 nM (CMY-37), 0.4 nM (AmpC P. aeruginosa), 0.2 nM (OXA-1), 1.2 nM (OXA-11), 0.4 nM (OXA-15) and 0.3 nM (OXA-48). After 20 min incubation at room temperature, plates were once again read at 485 nm. Enzyme activity was obtained by subtracting the final signal by the background, and was converted to enzyme inhibition using non inhibited wells. IC50 curves were fitted to a classical Langmuir equilibrium model with Hill slope using XLFIT (IDBS).

E. cloacae = experiment: MIC of compounds alone, broth microdilution; type: cell-based; settings: Enterobacter cloacae
Experimental: as §1, §2

P. aeruginosa = experiment: MIC of compounds alone, broth microdilution; type: cell-based; settings: Pseudomonas aeruginosa, alone, read-out: MIC
Experimental: as §1, §2

E. aerogenes = experiment: MIC of compounds alone, broth microdilution; type: cell-based; settings: Klebsiella aerogenes; alone; EAE 200261; beta-lactamases TEM-x AmpC; read-out: MIC
Experimental: as §1, §2

C. freundii = experiment: MIC of compounds alone, broth microdilution; type: cell-based; settings: Citrobacter freundii, alone, read-out: MIC
Experimental: as §1, §2

S. marcescens [3] = experiment: MIC of compounds alone, broth microdilution; type: cell-based; settings: Serratia marcescens, SMA UFR30, beta-lactamases OXA-405
Experimental: as §1, §2

K. pneumoniae = experiment: MIC of compounds alone, broth microdilution; type: cell-based; settings: Klebsiella pneumoniae, read-out: MIC
Experimental: as §1, §2

E. coli = experiment: MIC of compounds alone, broth microdilution; type: cell-based; settings: Escherichia coli
Experimental: as §1, §2

P. mirabilis = experiment: MIC of compounds alone, broth microdilution; type: cell-based; settings: Proteus mirabilis, PMI UFR82, beta-lactamases CMY-2
Experimental: as §1, §2

C. murliniae [4] = experiment: MIC of compounds alone, broth microdilution; type: cell-based; settings: alone; CMU 210102; beta-lactamases VIM-4; read-out: MIC
Experimental: as §1, §2

M. morganii = experiment: MIC of compounds alone, broth microdilution; type: cell-based; settings: Morganella morganii, MMO 200321, beta-lactamases TEM-1, CTX-M-15 OXA-1
Experimental: as §1, §2

K. oxytoca = experiment: MIC of compounds alone, broth microdilution; type: cell-based; settings: Klebsiella oxytoca; alone; KOX UFR21; beta-lactamases TEM-1, CTX-M-15 OXA-48; read-out: MIC
Experimental: as §1, §2

O=C(O)C(F)(F)F.O=C1N2C[C@H](c3scnc3[C@H]2c2ncc[nH]2)N1OS(=O)(=O)[O-].[Na+] (relative stereo) [Example 1, Sodium and 2,2,2-trifluoroacetate [trans-7-(1H-imidazol-3-ium-2-yl)-9-oxo-3-thia-5,8,10-triaza-tricyclo[6.2.1.0^2,6]undeca-2(6),4-dien-10-yl]sulfate]
8.4 nM: IC50 (OXA-48)
8 µg/mL: MIC (E. cloacae; ECL 2185D, beta-lactamases OXA-163, read-out: MIC) | MIC (E. cloacae; ECL 200138, beta-lactamases AmpC, read-out: MIC) | MIC (E. cloacae; ECL 260033, beta-lactamases AmpC, read-out: MIC) | MIC (E. cloacae; ECL 260253, beta-lactamases TEM-1 KPC-3, read-out: MIC) | MIC (E. cloacae; ECL HAN, beta-lactamases OXA-35, read-out: MIC) | MIC (E. cloacae; ECL UFR14, beta-lactamases TEM-1, SHV-12, CTX-M-15 DHA-1 OXA-1 OXA-48, read-out: MIC) | MIC (E. cloacae; ECL UFR60, beta-lactamases TEM-1, CTX-M-15 KPC-2, read-out: MIC) | MIC (E. cloacae; ECL UFR84, beta-lactamases TEM-1 AmpC OXA-1, read-out: MIC) | MIC (E. aerogenes) | MIC (C. freundii; CFR UFR11, beta-lactamases TEM-1 OXA-1 OXA-48) | MIC (K. pneumoniae; alone, KPN 190270, beta-lactamases TEM-1, SHV-76, CTX-M-15 OXA-1) | MIC (K. pneumoniae; alone, KPN 270077, beta-lactamases TEM-1, SHV-1, CTX-M-15) | MIC (K. pneumoniae; alone, KPN 6122012, beta-lactamases SHV-1 NDM-1) | MIC (K. pneumoniae; alone, KPN UFR24, beta-lactamases TEM-1, SHV-2, SHV-11 OXA-1 OXA-48 OXA-47) | MIC (K. pneumoniae; alone, KPN UFR66, beta-lactamases TEM-1, SHV-11, CTX-M-15 KPC-2) | MIC (K. pneumoniae; alone, KPN UFR68, beta-lactamases TEM-1, SHV-11, CTX-M-15 KPC-3)
1 µg/mL: MIC (E. cloacae; ECL 200322, beta-lactamases TEM-1, CTX-M-15 OXA-1, read-out: MIC) | MIC (E. cloacae; ECL 260508, beta-lactamases TEM-1, CTX-M-15, read-out: MIC) | MIC (E. cloacae; ECL UFR38, beta-lactamases CTX-M-15 NDM-1, read-out: MIC) | MIC (E. cloacae; ECL UFR70, beta-lactamases TEM-1, CTX-M-15 CMY-2 OXA-1, read-out: MIC) | MIC (C. freundii; CFR UFR10, beta-lactamases OXA-48) | MIC (K. pneumoniae; alone, KPN UFR80, beta-lactamases SHV-11 DHA-1 OXA-1) | MIC (E. coli; ECO 180070, beta-lactamases TEM-1, CTX-M-15, read-out: MIC) | MIC (E. coli; ECO 190317, beta-lactamases TEM-1, SHV-12, CTX-M-15 OXA-1, read-out: MIC) | MIC (E. coli; ECO 190457, beta-lactamases CTX-M-15 OXA-1, read-out: MIC) | MIC (E. coli; ECO 260304, beta-lactamases CTX-M-15, read-out: MIC) | MIC (E. coli; ECO UFR18, beta-lactamases CTX-M-15 OXA-204, read-out: MIC) | MIC (E. coli; ECO UFR19, beta-lactamases CTX-M-15 CMY-2 OXA-1 OXA-204, read-out: MIC) | MIC (E. coli; ECO UFR32, beta-lactamases TEM-1, VEB-1 OXA-10, read-out: MIC) | MIC (E. coli; ECO UFR52, beta-lactamases TEM-1, SHV-12 IMP-8, read-out: MIC) | MIC (E. coli; ECO UFR61O, beta-lactamases TEM-1 KPC-2, read-out: MIC)
> 32 µg/mL: MIC (P. aeruginosa; PAE CIP107051, beta-lactamases TEM-24) | MIC (P. aeruginosa; PAE MUS, beta-lactamases OXA-20 OXA-18) | MIC (K. pneumoniae; alone, KPN 260252, beta-lactamases TEM-1, SHV-11 KPC-3)
2 µg/mL: MIC (E. cloacae; ECL NEM146383, beta-lactamases AmpC, read-out: MIC) | MIC (E. cloacae; ECL UFR12, beta-lactamases CTX-M-9 OXA-48, read-out: MIC) | MIC (E. cloacae; ECL UFR13, beta-lactamases TEM-1, SHV-12, CTX-M-9 OXA-48, read-out: MIC) | MIC (E. cloacae; ECL UFR85, beta-lactamases TEM-1, CTX-M-15 AmpC, read-out: MIC) | MIC (C. freundii; CFR UFR37, beta-lactamases TEM-1, CTX-M-15 NDM-1) | MIC (K. pneumoniae; alone, KPN 110376, beta-lactamases TEM-1, SHV-1, CTX-M-15 OXA-1 OXA-48) | MIC (K. pneumoniae; alone, KPN 190551, beta-lactamases TEM-1, SHV-1, CTX-M-15 OXA-1) | MIC (K. pneumoniae; alone, KPN 200047, beta-lactamases TEM-1, SHV-32, CTX-M-15 OXA-1) | MIC (K. pneumoniae; alone, KPN 200327, beta-lactamases TEM-1, SHV-1, CTX-M-15 OXA-1) | MIC (K. pneumoniae; alone, KPN 260376, beta-lactamases SHV-1, SHV-49 OXA-1) | MIC (K. pneumoniae; alone, KPN LIB, beta-lactamases SHV-11 OXA-48) | MIC (K. pneumoniae; alone, KPN UFR25, beta-lactamases TEM-1, SHV-11, CTX-M-15 OXA-162) | MIC (K. pneumoniae; alone, KPN UFR28, beta-lactamases TEM-1, SHV-1, CTX-M-15 OXA-1 OXA-232) | MIC (E. coli; ECO 260508, beta-lactamases TEM-1, CTX-M-15 OXA-1, read-out: MIC) | MIC (E. coli; ECO UFR16, beta-lactamases TEM-1, CTX-M-15 OXA-1 OXA-48, read-out: MIC) | MIC (E. coli; ECO UFR39, beta-lactamases CTX-M-15 NDM-1, read-out: MIC) | MIC (E. coli; ECO UFR74, beta-lactamases SHV-1 DHA-1, read-out: MIC)
16 µg/mL: MIC (S. marcescens [3]) | MIC (K. pneumoniae; alone, KPN 6299, beta-lactamases TEM-1, SHV-11 OXA-163) | MIC (K. pneumoniae; alone, KPN UFR43, beta-lactamases SHV-11, CTX-M-15 CMY-2 OXA-1 NDM-1) | MIC (K. pneumoniae; alone, KPN UFR65, beta-lactamases TEM-1, SHV-11 KPC-2) | MIC (E. coli; ECO UFR41, beta-lactamases TEM-1, CTX-M-15 CMY-2 OXA-1 NDM-4, read-out: MIC)
< 0.25 µg/mL: MIC (S. marcescens [1]) | MIC (C. murliniae [2])
4 µg/mL: MIC (E. cloacae; ECL 190310, beta-lactamases AmpC, read-out: MIC) | MIC (E. cloacae; ECL 260323, beta-lactamases AmpC, read-out: MIC) | MIC (E. cloacae; ECL P99, beta-lactamases AmpC, read-out: MIC) | MIC (K. pneumoniae; BAA1898, alone, KPN BAA-1898, beta-lactamases TEM-1, SHV-11, SHV-12 KPC-2) | MIC (K. pneumoniae; alone, KPN 131119, beta-lactamases TEM-1, SHV-11, CTX-M-15 OXA-1 OXA-48) | MIC (K. pneumoniae; alone, KPN 160143, beta-lactamases TEM-1, SHV-1, CTX-M-15 KPC-2 OXA-1) | MIC (K. pneumoniae; alone, KPN 190128, beta-lactamases TEM-1, SHV-32, CTX-M-15 OXA-1) | MIC (K. pneumoniae; alone, KPN 190425, beta-lactamases TEM-1, SHV-1, CTX-M-15 OXA-1) | MIC (K. pneumoniae; alone, KPN 260251, beta-lactamases TEM-1, SHV-11, SHV-12, CTX-M-15 KPC-2) | MIC (K. pneumoniae; alone, KPN 700603, beta-lactamases SHV-18 OXA-2) | MIC (K. pneumoniae; alone, KPN ARA, beta-lactamases TEM-1, SHV-11, CTX-M-15 OXA-1 OXA-48) | MIC (K. pneumoniae; alone, KPN UFR22_O, beta-lactamases TEM-1, SHV-1 OXA-48) | MIC (K. pneumoniae; alone, KPN UFR27, beta-lactamases TEM-1, SHV-28, CTX-M-15 OXA-204) | MIC (K. pneumoniae; alone, KPN UFR42, beta-lactamases SHV-2, CTX-M-15 OXA-1 OXA-181 NDM-1) | MIC (K. pneumoniae; alone, KPN UFR53, beta-lactamases TEM-1 IMP-1) | MIC (K. pneumoniae; alone, KPN UFR77, beta-lactamases CMY-2) | MIC (K. pneumoniae; alone, KPN UFR79, beta-lactamases DHA-1 OXA-1) | MIC (E. coli; ECO 260096, beta-lactamases CTX-M-132, read-out: MIC) | MIC (E. coli; ECO UFR17, beta-lactamases TEM-1, CTX-M-15 CMY-2 OXA-1 OXA-181, read-out: MIC) | MIC (C. murliniae [4]) | MIC (K. oxytoca)
0.5 µg/mL: MIC (E. cloacae; ECL 190408, beta-lactamases TEM-1, CTX-M-15 OXA-1, read-out: MIC) | MIC (E. cloacae; ECL UFR51, beta-lactamases SHV-12 IMP-8, read-out: MIC) | MIC (E. coli; ECO 190314, beta-lactamases CTX-M-1, read-out: MIC) | MIC (E. coli; ECO 200259, beta-lactamases CTX-M-14, read-out: MIC) | MIC (E. coli; ECO 200344, beta-lactamases CTX-M-1, read-out: MIC) | MIC (E. coli; ECO UFR45, beta-lactamases TEM-1 CMY-4 OXA-1 OXA-48 VIM-1, read-out: MIC) | MIC (E. coli; ECO UFR62, beta-lactamases TEM-1, CTX-M-9 KPC-2, read-out: MIC)
0.25 µg/mL: MIC (E. coli; ECO 190549, beta-lactamases CTX-M-1, read-out: MIC) | MIC (E. coli; ECO 200159, beta-lactamases TEM-1, CTX-M-14, read-out: MIC)
32 µg/mL: MIC (K. pneumoniae; alone, KPN UFR81, beta-lactamases TEM-1, SHV-1 DHA-1 OXA-48) | MIC (P. mirabilis) | MIC (M. morganii)
